Read-outs that look alike come from different tables or passages of the source.
How the values were obtained:
[1] = test system: Pseudomonas sp. methyl parathion hydrolase (MPH); assay: sensing of methyl parathion hydrolase activity with pGESS-EGFP (III); assay type: cell-based; conditions: 0.1 mM substrate, GFP emission at 510 nm
Description: The cells were lysed, and the supernatant was analyzed with a fluorescence spectrometer (Varian, Australia), thereby examining whether the emission wavelength of GFP was detected at 510 nm.

[2] = test system: phenol-sensing artificial genetic circuit pGESS-EGFP(I) (dmpR)
Description: The dependence of sensitivity of the artificial genetic circuit on the concentration of the inducer phenol was confirmed using a fluorescence spectrometer. For this purpose, a single colony of recombinant E. coli containing pGESS-EGFP(I) was inoculated into LB liquid medium supplemented with 50 μg/ml of ampicillin and was cultured with shaking overnight at 37° C. The above pre-culture was inoculated into LB liquid medium containing 50 μg/ml of ampicillin and various concentrations (0.1-1000 μM) of phenol to a concentration of 1% (v/v) and was cultured with shaking at 30° C. for 20 hours. To analyze the intensity of fluorescence, the cells were disrupted, and the intensity of fluorescence in the supernatant was analyzed using a fluorescence spectrometer.

[3] = test system: genetic circuit pGESS-EGFP (III), mutant dmpR (E135K); assay type: cell-based, E. coli
Description: The colony introduced with the pGESS-EGFP (II) or pGESS-EGFP (III) genetic circuit was inoculated into LB medium and was cultured with shaking at 37° C. Next day, the culture was inoculated into LB medium to a concentration of 1% (v/v) and was cultured with shaking at 37° C. When the cell growth (OD600/ml) reached about 2.5, the cultured cells were recovered and subjected to activation of the genetic circuit. For activation of the genetic circuit, the recovered bacterial cells were washed once with M9 medium, after which they were suspended in M9 (acetate) media containing various concentrations of phenol and were cultured with shaking. Each medium was supplemented with 50 μg/ml of ampicillin as a selection marker. The bacterial cell growth was predicted by measuring absorbance (OD600) using a UV/VIS spectrometer (Ultrospec 3000, Pharmacia Biotech, Sweden), and the fluorescence intensity was measured using a fluorescence plate reader (Multi-label reader, PerkinElmer, USA).
Next, the measurement of sensitivities to 2-nitrophenol and 4-nitrophenol was performed. The measurement was performed in the same manner as above, and various concentrations of 2-nitrophenol and 4-nitrophenol in addition to phenol were added and allowed to react.

[4] = test system: phenol-sensing artificial genetic circuit pGESS-EGFP(I) (dmpR); conditions: solid medium, 30° C. 36 hours, fluorescence microscope
Description: In order to quantitatively analyze the function of the artificial genetic circuit (constructed in Example 1) to sense phenol, a single colony of recombinant E. coli BL21 containing pGESS-EGFP(I) was inoculated into LB liquid medium containing 50 μg/ml of ampicillin and was cultured with shaking overnight at 37° C.

[5] = test system: genetic circuit pGESS-Cm(II)
Description: (§1) Next, the genetic circuits (pGESS-Cm(II), pGESS-Tc(II), and pGESS-Km(II)) comprising the antibiotic resistance gene as the reporter were used to perform quantitative antibiotic resistance analysis. A single colony of E. coli JM109(DE3) containing each genetic circuit comprising chloramphenicol, tetracycline or kanamycin resistance gene as a reporter was inoculated into liquid medium containing 50 μg/ml of ampicillin and was cultured with shaking overnight at 37° C. The pre-culture was 10^6-fold diluted, and 100 μl of the dilution was plated on each of selective media and cultured overnight at 37° C. for 3 days. The number of colonies produced on the solid medium was counted, thereby performing the resistance test. 50 μg/ml of ampicillin and various concentrations (0, 10, 20 and 30 μg/ml) of each of selective antibiotics (chloramphenicol, tetracycline and kanamycin resistance) were added to each selective medium. Also, a transcriptional activator, that is, phenol, was added at a concentration of 1-1000 μM.

[6] = test system: genetic circuit pGESS-Tc(II); conditions: phenol 1-1000 μM
Description: as §1

[7] = test system: genetic circuit pGESS-Km(II); conditions: phenol 1-1000 μM
Description: as §1

[8] = test system: genetic circuit pGESS-EGFP (II)
Description: In the present invention, in order to increase the ability of the genetic circuit to sense phenolic compounds, the reaction of the genetic circuit was performed using the optimal medium and carbon source selected in Example 5, and the cell growth step and the step of activating (analyzing) the genetic circuit were separated from each other, thereby attempting the optimization of the sense system. Specifically, the bacterial cells were made healthy using LB medium during growth, and the cells were recovered and the activity of the genetic circuit therein was analyzed in the M9 medium containing acetate as a carbon source.
Specifically, a colony introduced with the genetic circuit was inoculated into LB medium and was cultured with shaking overnight at 37° C., and next day, the culture was inoculated into LB medium at a concentration of 1% (v/v) and was cultured with shaking at 37° C. When the cell growth (OD600/ml) reached about 2.5, the cultured cells were recovered and subjected to activation of the genetic circuit. For activation of the genetic circuit, the recovered bacterial cells were washed once with M9 medium, after they were suspended in M9 (acetate) media containing various concentrations of phenols and were cultured with shaking at 30° C. for 16 hours. Each medium was supplemented with 50 μg/ml of ampicillin as a selective marker. The intensity of fluorescence in cells induced by each concentration of phenol was measured using FACSAria system (Becton Dickinson, US). As a detector, an FSC, SSC, FL1-H (excitation=488 nm, emission=530/30 nm) detector was set, and data obtained by 50,000 sample cells were analyzed using FACSDiVa (Becton Dickinson, USA) (see FIG. 19 C).

[9] = test system: artificial genetic circuit pGESS-EGFP (I) (dmpR); assay type: cell-based, E. coli DH5α; conditions: 0.1-1000 μM tested, overnight at 30° C., LB medium
Description: The signals of the artificial genetic circuit for phenolic compounds were quantitatively analyzed. Specifically, a single colony of E. coli DH5α containing pGESS-EGFP (I) was inoculated into LB liquid medium containing 50 μg/ml of ampicillin and was cultured with shaking overnight at 37° C. The culture was inoculated into LB medium containing 50 μg/ml of ampicillin to a concentration of 1% (v/v), and 0.1-1000 μM of each of phenol, o-chlorophenol, m-chlorophenol, o-nitrophenol, catechol and resorcinol was added thereto and cultured with shaking overnight at 30° C. The cells were lysed, and the supernatant was analyzed by a fluorescence spectrometer (Varian, Australia), thereby measuring the fluorescence of GFP at 510 nm.

[10] = target: T1, C. freundii tyrosine-phenol lyase (TPL) (Citrobacter freundii, UniProt P31013); assay: sensing of tyrosine-phenol lyase activity with pGESS-EGFP (I); assay type: cell-based; conditions: 1 mM tyrosine, 10 μM PLP, 30° C. 20 hours
T1 construct: expressed in transfected cells; host or cells: E. coli DH5α containing pGESS-EGFP (I), plasmid pEC-TPL
Source text: The GESS genetic circuit of the present invention can also be used to sense a reaction (phenol-lyase) of liberating phenol from substrates (Ph-C—(R)) comprising carbon coupled to phenol. In the present invention, whether the GESS genetic circuit senses the activity of TPL (enzyme degrading tyrosine into phenol, pyruvic acid and ammonia) was examined in order to verify the effectiveness of TPL. Specifically, C. freundii TPL gene was cloned into pEC11a (obtained by replacing the on of pET11a(+) with ACYC ori) to prepare pEC-TPL which was then introduced into E. coli DH5α containing pGESS-EGFP (I).

[11] = enzymatic properties of novel alkaline phosphatase (pNPP hydrolysis, absorbance at 405 nm); assay type: biochemical; conditions: 15 minutes, at 80° C. or below
Description: The optimum pH and temperature, thermal stability and substrate specificity of the selected alkaline phosphatase and the effect thereof on metal ions were examined. An enzymatic reaction was performed in the following manner. The enzymatic reaction was performed using a mixture of 50 mM diethanolamine, DEA (pH 9.0) buffer, 0.5 mM para-nitrophenylphosphate (pNPP) and the enzyme at 37° C. for 5 minutes. The same amount of 1M NaOH was added to stop the enzymatic reaction, and the amount of nitrophenol produced by the enzymatic reaction was measured. the measurement was performed by measuring the absorbance at 405 nm using a fluorescence plate reader (Victor5, Perkin-Elmer, USA). 1 unit was defined as the amount of enzyme that can produce 1 μmol of para-nitrophenol per minute at 37° C.
In order to examine the optimum pH of the novel alkaline phosphatase, the activities thereof at a pH of 7.0 to 10.5 were compared. At a pH of 7.0 to 8.5, 50 mM Tris-HCl buffer was used, and at a pH of 7.5 to 10.5, 50 mM DEA buffer was used.
In addition, the activities of the enzyme at various temperatures were compared. […] (see FIG. 25B). In addition, in order to examine the thermal inactivation of the enzyme, the enzyme was allowed to stand at various temperatures for 15 minutes, and then the remaining enzymatic activity was measured. […]

T1 sequence (P31013 whole entry): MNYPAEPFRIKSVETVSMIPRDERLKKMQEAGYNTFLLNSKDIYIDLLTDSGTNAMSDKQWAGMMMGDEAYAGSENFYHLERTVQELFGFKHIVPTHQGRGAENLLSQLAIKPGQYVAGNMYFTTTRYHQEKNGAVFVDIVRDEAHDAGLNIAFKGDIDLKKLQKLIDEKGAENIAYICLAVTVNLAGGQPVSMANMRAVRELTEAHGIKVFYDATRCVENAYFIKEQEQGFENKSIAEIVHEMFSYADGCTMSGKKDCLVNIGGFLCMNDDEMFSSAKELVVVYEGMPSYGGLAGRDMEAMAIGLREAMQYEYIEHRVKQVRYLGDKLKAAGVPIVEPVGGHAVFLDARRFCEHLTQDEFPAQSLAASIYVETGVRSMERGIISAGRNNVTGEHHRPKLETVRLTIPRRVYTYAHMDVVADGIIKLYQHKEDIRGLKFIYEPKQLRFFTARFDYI

For `COP(=S)(OC)Oc1ccc([N+](=O)[O-])cc1` [methyl parathion], the “fluorescence in the presence of MPH” value [1] was “strong fluorescence was observed”.
For `Oc1ccccc1` [phenol], the “phenol concentration at which a clear fluorescent signal was observed” value ([2]; LB liquid medium, 30° C. 20 hours, fluorescence spectrometer) was at least 10 µM, the “phenol concentration range in which the genetic circuit is quantitatively activated” value ([2]; pGESS-EGFP(I)) was 1 to 1000 µM and the “sensitivity relative to wild dmpR” value ([3]; mutant dmpR vs wild dmpR (pGESS-EGFP (II))) was “about 10 times”. The “relative sensitivity among phenol, 4-nitrophenol and 2-nitrophenol” value ([3]; pGESS-EGFP (III)) was “highest”, the “concentration range which could be quantitatively sensed” value ([3]; pGESS-EGFP (III), mutant dmpR, M9 (acetate)) was 0.1 to 10 µM and the “phenol concentration at which colony fluorescence was observed” value [4] was “more than 1 μM”. It also gave a resistance to chloramphenicol ([5]; phenol concentration 100 μM) of 40 µg/mL, a resistance to chloramphenicol ([5]; phenol concentration 1 mM) of 50 µg/mL and a resistance to chloramphenicol ([5]; phenol concentration of 10 μM) of at most 20 µg/mL. The “phenol-dependent tetracycline resistance (colony formation)” value [6] was “quantitative results similar to those in the case of chloramphenicol”, the “phenol-dependent kanamycin resistance (colony formation)” value [7] was “the formation of colonies was not sensed” and the “increase of reaction value” ([8]; 2-step activity analysis) was “about 5 times”. For the same compound, the “sensitivity relative to the previous sensitivity” value ([8]; 2-step activity analysis) was “about 10 times”, the “concentration range of phenol which could be quantitatively analyzed” value ([8]; 2-step activity analysis, M9 (acetate)) was 1 to 10 µM and the “phenol concentration that could be sensed by 2-step activity analysis” value ([8]; M9 (acetate), 30° C. 16 hours) was “at least 1 μM”. The “concentration from which fluorescence started to be sensed” value [9] was 1 µM.
With `N[C@@H](Cc1ccc(O)cc1)C(=O)O` [tyrosine] the “intensity of fluorescence in the cell lysis due to TPL activity” value [10] was “significantly increased”.
With “alkaline phosphatase (BAP) from E. coli: alkaline phosphatase (BAP) from E. coli” the thermal inactivation [11] was “not inactivated”.

Reference: patent US9783859B2, “Method of screening and quantifying various enzymatic activities using artificial genetic circuits” (KOREA RESEARCH INSTITUTE OF BIOSCIENCE AND BIOTECHNOLOGY, priority 2009, dated 2017)
